# From ChEMBL document CHEMBL4190331, “Discovery of Potent EV71 Capsid Inhibitors for Treatment of HFMD” (ACS Med Chem Lett, 2017)
# Activity calls are given as the source filed them. No cut-off for these calls is given here.
# Key:
# [1] = Cytotoxicity against human RD cells assessed as reduction in cell viability after 72 hrs by CCK-8 assay
# [2] = Clearance in CD-1 mouse at 2 mg/kg, iv administered as single dose; format: ADME, organism-based; conditions: in vivo
# [3] = Elimination half life in CD-1 mouse at 2 mg/kg, iv administered as single dose; format: ADME, organism-based; conditions: in vivo, read-out: beta t1/2 (converted)
# [4] = Volume of distribution in CD-1 mouse at 2 mg/kg, iv administered as single dose; format: ADME, organism-based; conditions: in vivo
# [5] = AUC in CD-1 mouse at 2 mg/kg, iv administered as single dose; format: ADME, organism-based; conditions: in vivo
# [6] = Cmax in CD-1 mouse at 5 mg/kg, ip administered as single dose; format: ADME, organism-based; parameters: dose 5 mg/kg, route intraperitoneal; conditions: in vivo
# [7] = Tmax in CD-1 mouse at 5 mg/kg, ip administered as single dose; format: ADME, organism-based; conditions: in vivo
# [8] = AUC in CD-1 mouse at 5 mg/kg, ip administered as single dose; format: ADME, organism-based; conditions: in vivo
# [9] = […] bioavailability in CD-1 mouse at 5 mg/kg, ip administered as single dose; format: ADME, organism-based; conditions: in vivo, intraperitoneal
# Enterovirus A71 [10] = test: Antiviral activity against EV71 695F infected in ICR mouse assessed as protection against viral infection by measuring mouse survival at 10 mg/kg, ip qd administered for 7 days dosed prior to viral infection measured for 2 weeks relative to control; format: functional; conditions: Enterovirus A
# Enterovirus A71 [11] = test: Antiviral activity against EV71 695F infected in ICR mouse assessed as protection against viral infection by measuring mouse survival at 10 mg/kg, ip qd administered for 7 days dosed after viral infection measured for 2 weeks relative to control; format: functional; conditions: Enterovirus A
# Enterovirus A71 [12] = test: Antiviral activity against EV71 695F infected in ICR mouse assessed as decrease in body weight loss at 10 mg/kg, ip qd administered for 7 days dosed prior to viral infection measured for 2 weeks; format: functional, organism-based
# Enterovirus A71 [13] = test: Antiviral activity against EV71 695F infected in ICR mouse assessed as decrease in body weight loss at 10 mg/kg, ip qd administered for 7 days dosed after viral infection measured for 2 weeks; format: functional, organism-based
# Enterovirus A71 [14] = test: Antiviral activity against EV71 695F infected in ICR mouse assessed as effect on clinical score at 10 mg/kg, ip qd administered for 7 days dosed prior to viral infection measured for 2 weeks; format: functional, organism-based
# Enterovirus A71 [15] = test: Antiviral activity against EV71 695F infected in ICR mouse assessed as effect on clinical score at 10 mg/kg, ip qd administered for 7 days dosed after viral infection measured for 2 weeks; format: functional, organism-based
# [16] = Stability in mouse liver microsomes; format: ADME, microsome
# Enterovirus A71 [17] = test: Antiviral activity against EV71 695F infected in ICR mouse assessed as protection against viral infection by measuring mouse survival at 0.4 mg/kg, ip qd administered for 7 days dosed prior to viral infection measured on day 14 relative to control; format: functional; conditions: Enterovirus A
# Enterovirus A71 [18] = test: Antiviral activity against EV71 695F infected in ICR mouse assessed as decrease in body weight loss at 0.4 mg/kg, ip qd administered for 7 days dosed prior to viral infection measured for 2 weeks; format: functional, organism-based
# Enterovirus A71 [19] = test: Antiviral activity against EV71 695F infected in ICR mouse assessed as effect on clinical score at 0.4 mg/kg, ip qd administered for 7 days dosed prior to viral infection measured for 2 weeks; format: functional, organism-based
# [20] = Cmax in CD-1 mouse at 5 mg/kg, po administered as single dose; format: ADME, organism-based; parameters: dose 5 mg/kg, route oral; conditions: in vivo
# [21] = Tmax in CD-1 mouse at 5 mg/kg, po administered as single dose; format: ADME, organism-based; conditions: in vivo
# [22] = AUC in CD-1 mouse at 5 mg/kg, po administered as single dose; format: ADME, organism-based; conditions: in vivo
# [23] = […] bioavailability in CD-1 mouse at 5 mg/kg administered as single dose; format: ADME, organism-based; conditions: in vivo, po
# [24] = biological target: Voltage-gated inwardly rectifying potassium channel KCNH2 (Homo sapiens, UniProt Q12809); test: Inhibition of human ERG expressed in CHO-K1 cells by Qpatch assay
# Mus musculus [25] = test: Toxicity in ICR mouse infected with EV71 695F assessed as death at 100 mg/kg, ip qd administered for 7 days measured on day 5; format: organism-based; conditions: in vivo, 168 h
# Mus musculus [26] = test: Toxicity in ICR mouse infected with EV71 695F assessed as death at 50 mg/kg, ip qd administered for 7 days measured on day 6; format: organism-based; conditions: in vivo, 168 h
# Voltage-gated inwardly rectifying potassium channel KCNH2, sequence (Q12809 whole entry): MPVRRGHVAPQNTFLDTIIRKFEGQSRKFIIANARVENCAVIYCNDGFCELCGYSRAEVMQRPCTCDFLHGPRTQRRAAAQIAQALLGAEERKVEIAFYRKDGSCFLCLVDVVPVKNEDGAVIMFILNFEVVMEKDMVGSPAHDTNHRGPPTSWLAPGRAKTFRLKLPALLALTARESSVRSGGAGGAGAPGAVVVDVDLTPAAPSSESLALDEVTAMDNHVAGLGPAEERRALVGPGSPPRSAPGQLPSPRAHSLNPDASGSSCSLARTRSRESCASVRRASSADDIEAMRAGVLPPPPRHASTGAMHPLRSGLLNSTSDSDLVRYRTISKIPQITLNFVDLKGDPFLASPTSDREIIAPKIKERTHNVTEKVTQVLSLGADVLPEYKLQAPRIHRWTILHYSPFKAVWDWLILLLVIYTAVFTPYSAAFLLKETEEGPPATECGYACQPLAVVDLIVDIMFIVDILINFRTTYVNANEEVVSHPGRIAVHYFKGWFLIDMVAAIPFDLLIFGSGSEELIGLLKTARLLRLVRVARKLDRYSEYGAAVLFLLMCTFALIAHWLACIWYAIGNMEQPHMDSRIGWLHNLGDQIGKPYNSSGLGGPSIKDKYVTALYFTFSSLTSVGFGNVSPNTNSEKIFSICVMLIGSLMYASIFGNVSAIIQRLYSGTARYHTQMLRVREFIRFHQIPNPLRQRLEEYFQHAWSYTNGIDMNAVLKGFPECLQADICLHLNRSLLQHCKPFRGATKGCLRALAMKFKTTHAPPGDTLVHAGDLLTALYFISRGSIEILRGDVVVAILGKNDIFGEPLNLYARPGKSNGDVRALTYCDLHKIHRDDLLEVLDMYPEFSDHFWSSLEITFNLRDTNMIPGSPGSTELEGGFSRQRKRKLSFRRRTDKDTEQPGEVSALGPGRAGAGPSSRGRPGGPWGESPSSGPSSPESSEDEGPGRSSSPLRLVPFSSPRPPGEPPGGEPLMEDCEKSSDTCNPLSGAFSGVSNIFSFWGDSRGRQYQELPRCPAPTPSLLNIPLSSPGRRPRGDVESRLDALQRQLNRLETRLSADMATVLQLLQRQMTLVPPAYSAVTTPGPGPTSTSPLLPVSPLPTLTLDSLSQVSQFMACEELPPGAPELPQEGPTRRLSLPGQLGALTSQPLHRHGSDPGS
compound,measurement,setting,value
CCc1noc2cc(OCCCCCN3CCN(c4ccnc(N)c4)S3(=O)=O)ccc12,CC50 at 72 h,[1]; RD cells,> 100 µM
CCO/N=C/c1ccc(OCCC(C)CCN2CCN(c3ccnc(N)c3)C2=O)cc1 (configuration not stated),CC50 at 72 h,[1]; rd,5 µM
same,clearance,[2],105 mL/min/kg
same,half-life,[3],18 min
same,Vd,[4],2.4 L/kg
same,AUC,[5],0.371 µM·h
same,Cmax,[6],1560 nM
same,Tmax,[7],0.3 h
same,AUC,[8],1.71 µM·h
same,bioavailability,[9],92%
CCO/N=C/c1ccc(OCCCCCN2CCN(c3ccnc(N)c3)S2(=O)=O)cc1,CC50 at 72 h,[1]; rd,> 100 µM
same,clearance,[2],36 mL/min/kg
same,half-life,[3],96 min
same,Vd,[4],3.2 L/kg
same,AUC,[5],0.592 µM·h
same,Cmax,[6],1440 nM
same,Tmax,[7],0.5 h
same,AUC,[8],2.45 µM·h
same,bioavailability,[9],79%
Nc1cc(N2CCN(CCCCCOc3ccc(-c4ccc(Cl)cc4)cc3)S2(=O)=O)ccn1,CC50 at 72 h,[1]; RD cells,> 100 µM
CCO/N=C1\CCc2cc(OCCCCCN3CCN(c4ccnc(N)c4)S3(=O)=O)ccc21,CC50 at 72 h,[1]; rd,42 µM
same,clearance,[2],34 mL/min/kg
same,half-life,[3],90 min
same,Vd,[4],2.8 L/kg
same,AUC,[5],0.821 µM·h
same,Cmax,[6],2150 nM
same,Tmax,[7],0.7 h
same,AUC,[8],3.87 µM·h
same,bioavailability,[9],88%
same,survival at 10 mg/kg,Enterovirus A71 [10],100%
same,survival at 10 mg/kg,Enterovirus A71 [11],100%
same,Activity,Enterovirus A71 [12],Active
same,Activity,Enterovirus A71 [13],Active
same,Activity,Enterovirus A71 [14],Active
same,Activity,Enterovirus A71 [15],Active
CCn1ccc2cc(OCCCCCN3CCN(c4ccnc(N)c4)S3(=O)=O)ccc21,CC50 at 72 h,[1]; RD cells,> 100 µM
O=C1CN(c2ccncc2)CCN1CCCCCOc1ccc(-c2ccc(Cl)cc2)cc1,CC50 at 72 h,[1]; rd,3.2 µM
same,Stability,[16],40 to 50 µL/min/mg
same,clearance,[2],21 mL/min/kg
same,half-life,[3],360 min
same,Vd,[4],10 L/kg
same,AUC,[5],3.34 µM·h
same,Cmax,[6],1260 nM
same,Tmax,[7],2 h
same,AUC,[8],8.95 µM·h
same,bioavailability,[9],112%
CCO/N=C(\CC)c1ccc(OCCCCCN2CCN(c3ccnc(N)c3)S2(=O)=O)cc1,CC50 at 72 h,[1]; RD cells,> 100 µM
O[C@H]1[C@H]2c3cc4c(cc3CN3CCC(=C[C@@H]1O)[C@H]23)OCO4 [LYCORINE],survival at 0.4 mg/kg,Enterovirus A71 [17],30%
same,Activity,Enterovirus A71 [18],Active
same,Activity,Enterovirus A71 [19],Active
CCO/N=C(\C)c1ccc(OCCCCCN2CCN(c3ccnc(N)c3)S2(=O)=O)cc1,CC50 at 72 h,[1]; RD cells,> 100 µM
CCO/N=C1\CCCc2cc(OCCCCCN3CCN(c4ccnc(N)c4)S3(=O)=O)ccc21,CC50 at 72 h,[1]; RD cells,> 100 µM
O=C1N(CCCCc2cc3cc(-c4ccc(Cl)cc4)ccc3o2)CCN1c1ccncc1,CC50 at 72 h,[1]; RD cells,4.3 µM
O=C1N(CCCCCOc2ccc(-c3ccc(Cl)cc3)cc2)CCN1c1ccncc1,CC50 at 72 h,[1]; RD cells,> 100 µM
same,Stability,[16],40 to 50 µL/min/mg
same,clearance,[2],28 mL/min/kg
same,half-life,[3],240 min
same,Vd,[4],9 L/kg
same,AUC,[5],2.73 µM·h
same,Cmax,[6],453 nM
same,Tmax,[7],2 h
same,AUC,[8],4.28 µM·h
same,bioavailability,[9],64%
O=C1N(CCCCC2CCc3cc(-c4ccc(Cl)cc4)ccc3O2)CCN1c1ccncc1 (configuration not stated),CC50 at 72 h,[1]; rd,3.4 µM
same,Stability,[16],40 to 50 µL/min/mg
same,clearance,[2],6 mL/min/kg
same,half-life,[3],300 min
same,Vd,[4],3 L/kg
same,AUC,[5],11 µM·h
same,Cmax,[6],3360 nM
same,Tmax,[7],1 h
same,AUC,[8],23.2 µM·h
same,bioavailability,[9],86%
CCn1ncc2cc(OCCCCCN3CCN(c4ccnc(N)c4)S3(=O)=O)ccc21,CC50 at 72 h,[1]; RD cells,> 100 µM
O=S1(=O)N(CCCCCOc2ccc(-c3ccc(Cl)cc3)cc2)CCN1c1ccncc1,CC50 at 72 h,[1]; RD cells,> 100 µM
same,Stability,[16],< 10 µL/min/mg
same,clearance,[2],12 mL/min/kg
same,half-life,[3],360 min
same,Vd,[4],5 L/kg
same,AUC,[5],5.71 µM·h
same,Cmax,[6],682 nM
same,Tmax,[7],2 h
same,AUC,[8],9.01 µM·h
same,bioavailability,[9],63%
same,Cmax,[20],617 nM
same,Tmax,[21],2 h
same,AUC,[22],6.17 µM·h
same,bioavailability,[23],43%
same,IC50,[24],> 30 µM
NC(=O)c1ncn([C@@H]2O[C@H](CO)[C@@H](O)[C@H]2O)n1 [RIBAVIRIN],Activity,Mus musculus [25],Toxic
same,Activity,Mus musculus [26],Toxic
O=C1N(CCCCc2nc3cc(-c4ccc(Cl)cc4)ccc3o2)CCN1c1ccncc1,CC50 at 72 h,[1]; RD cells,> 100 µM
